{"source": "patent EP4653001A1", "about": "“TREATMENT, DIAGNOSIS AND/OR PROGNOSIS OF MITOCHONDRIAL DISEASES” (Universidad Autónoma de Madrid, priority 2024, dated 2025)", "key": {"143B cells": {"test_system": "143B cells", "experiment": "Time-course cell proliferation / survival of 143B cells", "assay_type": "cell-based", "conditions": "143B cells under combined Piericidin and G6PDi, supplemented", "description": "All cell lines, 143b, HeLa, U2OS, and transmitochondrial cybrids carrying mutation in CI (ND2), CIII (CytB) or CIV (Cox2) subunits, were maintained in DMEM high glucose (HyClone), 10% FBS and 1% P/S at 37°C with 5% CO2. Mitochondrial mutant cells were cultured with supplementation of 50 µg/mL uridine. The selected cancer cell lines with different levels of malic enzyme (HCC15, KYSE410, CAKI1, J82, MDAMB453, Colo320, NCIH1703) were obtained from the DSMZ-German Collection of Microorganisms and Cell Cultures GmbH and cultured in the same DMEM 10% FBS medium. OCI-Lys3 and RCH-ACV cell lines (cells in suspension), were obtained from the same repository and cultured in RPMI 10% FBS medium. Transfections for gain- and loss-of-function studies were performed according to the manufacturer's instructions using the polyfect reagent (Qiagen, 301107). […] Subsequently, cells were trypsinized and quantified using a hemocytometer (NanoEnTek, DHC-N01). Cell viability was quantified using propidium iodide (PI; 50 µg/ml) staining.\nNext, we conducted time-course experiments to gain further knowledge on the metabolic determinants underlying the observed synthetic lethality between PPP and OXPHOS. 143B cells were treated either with Piericidin or G6PDi (selective inhibitor of G6PD) alone or the combination of both and cell proliferation was quantified over the course of 96 h. […]"}, "Colo320 cells": {"test_system": "Colo320 cells", "experiment": "Colo320 xenograft tumor growth", "assay_type": "in vivo, NMRI-Foxn1^nu/nu mice", "description": "Xenografts experiments were carried out in 4 weeks old female NMRI-Foxn1^nu/nu mice that were subcutaneously injected with Colo320 cells. For each tumor, 2 million cells were resuspended in Matrigel Matrix: PBS solution (1:1) (Corning, #354234) and 100 uL of volume was injected in the flanks of each mouse. Tumors were measured every other day using digital vernier caliper until the volume reached […]. At this point, they were sacrificed with CO2 and posterior cervical disruption. Tumors were isolated and frozen in -80°C for future analysis. For volume calculation, we used the formula V = ((LxW^2))/(2) [formula] in mm^3, were V = tumor volume, W = tumor width and L = tumor length.\nTo inhibit Mitochondrial Complex I in vivo, we employed IACS-010759 (Selleckchem, #S8731), a small-molecule inhibitor of complex I. IACS was dissolved in DMSO at a 10% concentration and then prepared for administration at 0.5% in Methyl cellulose (Sigma, #M0262). Each mouse received a dose of 10 mg/kg for five consecutive days via oral gavage.\nWe propose that sensitivity to OXPHOS inhibitors can be, at least in part, mediated by combined expression of the NADPH-producing enzymes G6PD and ME1. To test this hypothesis […], we correlated protein expression of G6PD and ME1 for hundreds of cell lines. […]"}, "143B cell lines": {"test_system": "143B cell lines", "experiment": "Cell viability of CRISPR knock-out 143B cell lines treated with ETC inhibitors", "assay_type": "cell-based", "description": "All cell lines, 143b, HeLa, U2OS, and transmitochondrial cybrids carrying mutation in CI (ND2), CIII (CytB) or CIV (Cox2) subunits, were maintained in DMEM high glucose (HyClone), 10% FBS and 1% P/S at 37°C with 5% CO2. Mitochondrial mutant cells were cultured with supplementation of 50 µg/mL uridine. The selected cancer cell lines with different levels of malic enzyme (HCC15, KYSE410, CAKI1, J82, MDAMB453, Colo320, NCIH1703) were obtained from the DSMZ-German Collection of Microorganisms and Cell Cultures GmbH and cultured in the same DMEM 10% FBS medium. OCI-Lys3 and RCH-ACV cell lines (cells in suspension), were obtained from the same repository and cultured in RPMI 10% FBS medium. Transfections for gain- and loss-of-function studies were performed according to the manufacturer's instructions using the polyfect reagent (Qiagen, 301107). For cell number and proliferation experiments, cells were seeded in 12 or 6-well plates and allowed to proliferate for the specified durations. Subsequently, cells were trypsinized and quantified using a hemocytometer (NanoEnTek, DHC-N01). Cell viability was quantified using propidium iodide (PI; 50 µg/ml) staining.\nGeneration of knockout cell lines using CRISPR-Cas9 technology was performed with the lenti-CRISPR v2 vector (Addgene #52961). Guide sequences are: • sgGFPT1, 5-[…]-3 (SEQ ID NO: 1); • sgG6PD, 5-[…]-3 (SEQ ID NO: 2); • sgPHGDH, 5-[…]-3 (SEQ ID NO: 3); • sgMPC1, 5-[…]-3 (SEQ ID NO: 4) • sgPC, 5-CAGGCCCGGAACACACGGA-3 (SEQ ID NO: 5); • sgACLY, 5-[…]-3 (SEQ ID NO: 6); • sgME1, 5-[…]-3 (SEQ ID NO: 7).\nTo investigate glucose-dependent alternative metabolic pathways that become essential upon ETC inhibition, we generated through CRISPR/Cas9 technology, knock-out (KO) 143B cell lines for each of the following rate-limiting enzymes and transporters. We selected glucose 6 phosphate dehydrogenase (G6PD) for the PPP, Glutamine-Fructose-6-Phosphate Transaminase 1 (GFPT1) for the hexosamine pathway, Phosphoglycerate Dehydrogenase (PHGDH) for the serine biosynthesis pathway and Mitochondrial Pyruvate Carrier 1 (MPC1) to prevent pyruvate entry into the mitochondria. These KO and Control cells were treated with two specific ETC inhibitors (Piericidin A that targets Complex I and Antimycin A that targets Complex III) and cell viability was assessed after 3 days of treatment. […] We took advantage of the fruit fly Drosophila melanogaster model, as it is cost- and time-efficient and recapitulate a wide range of phenotypes seen in patients with metabolic and mitochondrial disorders. We obtained flies carrying mutations in Zw and Pgd genes (named: Pgd^39 Zw^lo2a), corresponding to human orthologs G6PD and 6PGD respectively. […]"}}, "data": [{"compound": "N[C@@H](CCC(=O)N[C@@H](CS)C(=O)NCC(=O)O)C(=O)O", "note": "[GSH]", "values": [{"measurement": "cell death phenotype", "setting": "143B cells", "value": "rescued"}]}, {"compound": "Cc1nc(-c2nc(-c3ccc(OC(F)(F)F)cc3)no2)nn1Cc1cccc(N2CCC(S(C)(=O)=O)CC2)c1", "note": "[IACS-010759]", "values": [{"measurement": "effect on tumor size", "setting": "Colo320 cells; Colo320 cells ectopically expressing ME1", "value": "completely lost"}, {"measurement": "tumor size", "setting": "Colo320 cells; Colo320 cells subcutaneous in nude mice, 10 mg/kg oral gavage", "value": "prominently reduced"}]}, {"compound": "Antimycin A", "values": [{"measurement": "cell viability", "setting": "143B cell lines; G6PD KO 143B cells, after 3 days of treatment", "value": "sensitive"}, {"measurement": "survival or proliferation", "setting": "143B cell lines; KO cells for GFPT1, PHGDH or MPC1, after 3 days of treatment", "value": "no differences"}]}]}
